Holding throughout (format): in vivo
Experiment [1] concerns blackgrass (Alopecurus myosuroides). Description: Test A postemergence. To be noted: Alopecurus myosuroides, post-emergence, 240 h; for pest or weed control at 125 g/ha: 125 g ai/ha; for pest or weed control at 500 g/ha: 500 g ai/ha; for pest or weed control at 31 g/ha: 31 g ai/ha, visual injury after approx. 10 d, 0 no effect, 100 complete control. In short, it runs like this: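 Seeded soil received test chemicals as a preemergence directed spray, and seedlings at one to two leaves, 2–10 cm tall, received them postemergence, in a non-phytotoxic, surfactant-containing solvent mixture. Pots were held in a greenhouse for approximately 10 d, then rated for injury from 0, no effect, to 100, complete control.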

The test system of experiment [2] is barnyardgrass (Echinochloa crus-galli). Put plainly: Test B flooded paddy test. To be noted: Echinochloa crus-galli, 250 g ai/ha, Flood. In a few lines: (§1)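 Evaluation by eye, against controls, occurred 13–15 d post-treatment in a greenhouse, using a 0 (no effect) to 100 (complete control) scale. Application was into the paddy water, 3 cm deep over the soil, on 2-leaf plants.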

In experiment [3] the test system is ducksalad (Heteranthera limosa). Put plainly: Test B flooded paddy test. As to conditions: Heteranthera limosa, 250 g ai/ha, Flood. In short, it runs like this: as §1
In the next experiment the test system is rice (Oryra sativa). Description: Test B flooded paddy test. As to conditions: Oryza sativa, 250 g ai/ha, Flood. In short, it runs like this: as §1
For experiment [4], the system named is sedge, umbrella (small-flower umbrella sedge, Cyperus difformis). Put plainly: Test B flooded paddy test. To be noted: Cyperus difformis, 250 g ai/ha, Flood. In short, it runs like this: as §1
The mark [5] stands for this setting: postemergence, visual injury vs untreated controls after approx. 10 d, 0 = no effect, 100 = complete control, read-out: Blackgrass plant response rating (0 to 100 scale).
[6] abbreviates: postemergence, 0 to 100 scale, 0 is no effect, 100 is complete control, read-out: Blackgrass plant response rating.
Setting [7] is: 0 to 100 scale where 0 is no effect and 100 is complete control, read-out: Barnyardgrass plant response rating.
Setting [8] is: 0 to 100 scale where 0 is no effect and 100 is complete control, read-out: Ducksalad plant response rating.
Setting [9] is: 0 to 100 scale where 0 is no effect and 100 is complete control, read-out: Rice plant response rating.
The mark [10] stands for this setting: 0 to 100 scale where 0 is no effect and 100 is complete control, read-out: Sedge, Umbrella plant response rating.
Where [11] appears, read: postemergence, visual injury after approximately 10 d, 0 to 100 scale (0 no effect, 100 complete control), read-out: Plant response rating, Blackgrass.
The mark [12] stands for this setting: scale of 0 to 100 where 0 is no effect and 100 is complete control, read-out: Barnyardgrass plant response rating.
[13] abbreviates: scale of 0 to 100 where 0 is no effect and 100 is complete control, read-out: Ducksalad plant response rating.
Setting [14] is: scale of 0 to 100 where 0 is no effect and 100 is complete control, read-out: Rice plant response rating.
Where [15] appears, read: scale of 0 to 100 where 0 is no effect and 100 is complete control, read-out: Sedge, Umbrella plant response rating.
Setting [16] is: Postemergence, visual rating about 10 d after treatment, read-out: Blackgrass plant response rating (0 to 100 scale).
[17] abbreviates: Postemergence, visual injury, 0 to 100 scale (0 no effect, 100 complete control), approx. 10 d, read-out: Plant response rating, Blackgrass.
Where [18] appears, read: 360 h, visually evaluated after 13 to 15 d, read-out: Plant response rating, Sedge, Umbrella (0 to 100 scale where 0 is no effect and 100 is complete control).
[19] abbreviates: Postemergence, 0 to 100 scale, read-out: Plant response rating, Blackgrass.

Structures are written as SMILES. Where two headings read alike, the source gives them in different places.

In the case of `O=C1NC[C@H](c2ccc(C(F)(F)F)cc2)C1C(=O)Nc1ccccc1CO` (stereo partly drawn) [Compound 1242], the pest or weed control at 125 g/ha in experiment [1] (setting [5]) was determined as 0%. The pest or weed control at 500 g/ha in experiment [1] (setting [6]) is 0%. For the same compound, the pest or weed control at 250 g/ha in experiment [2] (setting [7]) is 0%; in experiment [3] (setting [8]) it was 75%; in the experiment on rice (Oryra sativa) (setting [9]) it was 0%; in experiment [4] (setting [10]), 0%.
Consider `CN1C[C@H](c2cc(F)cc(F)c2)[C@@H](C(=O)Nc2ncccc2F)C1=O` [Compound 783], for which, in experiment [1] (setting [11]), the pest or weed control at 125 g/ha was determined as 0%. In addition, the pest or weed control at 250 g/ha (in experiment [2] (setting [12]); in experiment [3] (setting [13]); in the experiment on rice (Oryra sativa) (setting [14]); in experiment [4] (setting [15])) was 0% in each case.
`COc1cc(OC)cc([C@H]2CN(C)C(=O)[C@@H]2C(=O)Nc2cccc(F)c2F)c1` [Compound 1370]: the pest or weed control at 125 g/ha in experiment [1] (setting [16]) stood at 50%. In experiment [1] (setting [17]), the pest or weed control at 500 g/ha was 80%. In addition, the pest or weed control at 250 g/ha in experiment [2] (360 h, visually evaluated after 13 to 15 d, read-out: Plant response rating, Barnyardgrass (0 to 100 scale where 0 is no effect and 100 is complete control)) was 60%; in experiment [3] (360 h, visually evaluated after 13 to 15 d, read-out: Plant response rating, Ducksalad (0 to 100 scale where 0 is no effect and 100 is complete control)), 70%; with rice (Oryra sativa) (360 h, visually evaluated after 13 to 15 d, read-out: Plant response rating, Rice (0 to 100 scale where 0 is no effect and 100 is complete control)), 20%; in experiment [4] (setting [18]), 0%.
As to `CN1C[C@H](c2ccc3c(c2)CCC3)[C@@H](C(=O)Nc2ccccc2S(C)(=O)=O)C1=O` [Compound 744], the pest or weed control at 125 g/ha in experiment [1] (setting [11]) amounted to 20%. For the same compound, the pest or weed control at 250 g/ha in experiment [2] (setting [12]) amounted to 60%; in experiment [3] (setting [13]), 85%; in the experiment with rice (Oryra sativa) (setting [14]) it was 0%; in experiment [4] (setting [15]), 0%.
Regarding `CN1C[C@H](c2ccc3c(c2)CCC3)[C@@H](C(=O)Nc2ccccc2F)C1=O` [Compound 742], the pest or weed control at 125 g/ha in experiment [1] (setting [11]) worked out at 40%. Also, the pest or weed control at 250 g/ha in experiment [2] (setting [12]) turned out to be 60%; in experiment [3] (setting [13]) it was 100%; in the experiment on rice (Oryra sativa) (setting [14]), 0%; in experiment [4] (setting [15]), 0%.
Take `CN1C[C@H](c2ccc3c(c2)OC(F)(F)O3)[C@@H](C(=O)Nc2ccc(F)c(F)c2F)C1=O` [Compound 1204]: the pest or weed control at 125 g/ha in experiment [1] (setting [5]) was determined as 50%. The pest or weed control at 500 g/ha in experiment [1] (setting [6]) came out at 70%. In addition, the pest or weed control at 250 g/ha in experiment [2] (setting [7]) came to 70%; in experiment [3] (setting [8]) it was 100%; in the experiment with rice (Oryra sativa) (setting [9]), 0%; in experiment [4] (setting [10]), 0%.
Turning to `Cc1ccc([C@H]2CCN(C)C(=O)[C@@H]2C(=O)Nc2cccc(F)c2F)cc1` [Compound 1220], the pest or weed control at 125 g/ha in experiment [1] (setting [5]) came out at 30%. In addition, the pest or weed control at 500 g/ha in experiment [1] (setting [6]) was 40%. In addition, the pest or weed control at 250 g/ha in experiment [2] (setting [7]) stood at 70%; in experiment [3] (setting [8]) it was 95%; in the experiment on rice (Oryra sativa) (setting [9]), 10%; in experiment [4] (setting [10]) it was 0%.
Regarding `Cc1cc(F)cc([C@H]2CN(C)C(=O)[C@@H]2C(=O)Nc2ccc(F)c(F)c2F)c1` [Compound 801], the pest or weed control at 125 g/ha in experiment [1] (setting [11]) was 60%. Further, the pest or weed control at 31 g/ha in experiment [1] (setting [19]) was determined as 20%. The pest or weed control at 250 g/ha in experiment [2] (setting [12]) was 90%; in experiment [3] (setting [13]), 90%; in the experiment on rice (Oryra sativa) (setting [14]), 30%; in experiment [4] (setting [15]), 40%.
On to `CN1C[C@H](c2ccc3c(c2)CCC3)[C@@H](C(=O)Nc2cccc(F)c2F)C1=O` [Compound 743], for which, in experiment [1] (setting [11]), the pest or weed control at 125 g/ha worked out at 30%. Also, the pest or weed control at 250 g/ha in experiment [2] (setting [12]) is 65%; in experiment [3] (setting [13]), 95%; in the experiment on rice (Oryra sativa) (setting [14]) it was 20%; in experiment [4] (setting [15]), 0%.
In the case of `CSc1ccccc1NC(=O)[C@H]1C(=O)N(C)C[C@@H]1c1ccc(C(F)F)cc1` [Compound 799], the pest or weed control at 125 g/ha in experiment [1] (setting [11]) is 30%. Further, the pest or weed control at 31 g/ha in experiment [1] (setting [19]) was determined as 0%. Further, the pest or weed control at 250 g/ha is 65% in experiment [2] (setting [12]), 80% in experiment [3] (setting [13]), 30% in the experiment with rice (Oryra sativa) (setting [14]) and 0% in experiment [4] (setting [15]).
Turning to `CN1C[C@H](c2cccc(C(C)(F)F)c2)[C@@H](C(=O)Nc2ccccc2F)C1=O` [Compound 1317], the pest or weed control at 125 g/ha in experiment [1] (setting [16]) amounted to 80%. For the same compound, in experiment [1] (setting [17]), the pest or weed control at 500 g/ha was 80%. The pest or weed control at 250 g/ha in experiment [2] (setting [7]) came to 85%; in experiment [3] (setting [8]) it was 100%; with rice (Oryra sativa) (setting [9]) it was 0%; in experiment [4] (setting [18]), 0%.
For `CSc1ccccc1NC(=O)[C@H]1C(=O)N(C)C[C@@H]1c1cccc(C)c1` [Compound 1232], the pest or weed control at 125 g/ha in experiment [1] (setting [5]) worked out at 0%. Also, in experiment [1] (setting [6]), the pest or weed control at 500 g/ha amounted to 40%. Besides, the pest or weed control at 250 g/ha in experiment [2] (setting [7]) stood at 55%; in experiment [3] (setting [8]) it was 95%; in the experiment with rice (Oryra sativa) (setting [9]), 0%; in experiment [4] (setting [10]) it was 0%.
`Cc1c(F)cccc1NC(=O)[C@H]1C(=O)N(C)C[C@@H]1c1ccc(OC(F)F)cc1` [Compound 1213]: the pest or weed control at 125 g/ha in experiment [1] (setting [5]) was 20%. Further, the pest or weed control at 500 g/ha in experiment [1] (setting [6]) worked out at 40%. The pest or weed control at 250 g/ha is 70% in experiment [2] (setting [7]), 100% in experiment [3] (setting [8]), 20% with rice (Oryra sativa) (setting [9]) and 0% in experiment [4] (setting [10]).
With `COc1cc([C@H]2CN(C)C(=O)[C@@H]2C(=O)Nc2ccccc2F)ccc1C(F)(F)F` [Compound 768], in experiment [1] (setting [11]), the pest or weed control at 125 g/ha stood at 0%. Further, the pest or weed control at 250 g/ha was determined as 60% in experiment [2] (setting [12]), 85% in experiment [3] (setting [13]), 15% with rice (Oryra sativa) (setting [14]) and 0% in experiment [4] (setting [15]).
For the compound `COc1cc([C@H]2CN(C)C(=O)[C@@H]2C(=O)Nc2cccc(F)c2F)ccc1F` [Compound 1299], the pest or weed control at 125 g/ha in experiment [1] (setting [16]) turned out to be 20%. Besides, the pest or weed control at 500 g/ha in experiment [1] (setting [17]) was determined as 60%. Besides, the pest or weed control at 250 g/ha in experiment [2] (setting [7]) worked out at 65%; in experiment [3] (setting [8]), 85%; in the experiment with rice (Oryra sativa) (setting [9]), 20%; in experiment [4] (setting [10]), 40%.
Consider `CSc1ccccc1NC(=O)[C@H]1C(=O)N(C)C[C@@H]1c1cc(F)cc(F)c1` [Compound 738], for which the pest or weed control at 125 g/ha in experiment [1] (setting [11]) amounted to 0%. Moreover, the pest or weed control at 250 g/ha in experiment [2] (setting [12]) was determined as 40%; in experiment [3] (setting [13]) it was 100%; in the experiment on rice (Oryra sativa) (setting [14]) it was 0%; in experiment [4] (setting [15]), 0%.
`CN1C[C@H](c2ccc3c(c2)CCO3)[C@@H](C(=O)Nc2ccc(F)c(F)c2F)C1=O` [Compound 1323]: the pest or weed control at 125 g/ha in experiment [1] (setting [16]) was 50%. Moreover, the pest or weed control at 500 g/ha in experiment [1] (setting [17]) was 60%. The pest or weed control at 250 g/ha in experiment [2] (setting [7]) was 90%; in experiment [3] (setting [8]), 85%; in the experiment with rice (Oryra sativa) (setting [9]), 10%; in experiment [4] (setting [18]) it was 0%.
Turning to `Cc1c(F)ccc([C@H]2CNC(=O)[C@@H]2C(=O)Nc2cccc(F)c2F)c1F` [Compound 1327], the pest or weed control at 125 g/ha in experiment [1] (setting [16]) came out at 0%. The pest or weed control at 500 g/ha in experiment [1] (setting [17]) came out at 20%. The pest or weed control at 250 g/ha in experiment [2] (setting [7]) came to 30%; in experiment [3] (setting [8]), 100%; with rice (Oryra sativa) (setting [9]) it was 0%; in experiment [4] (setting [18]), 0%.

The values are drawn from patent US12077503B2, “Substituted cyclic amides and their use as herbicides” (FMC CORPORATION, priority 2015, dated 2024).
